Results published in patent publication US12435057B2, “Triazole carboxylic acids as LPA antagonists” (BRISTOL-MYERS SQUIBB COMPANY, priority 2019, dated 2025).

What was measured:
IPF patients = conditions: 26-week clinical trial in IPF patients; cited from earlier work
human LPA1 = biological target: T1, human LPA1 (Homo sapiens, UniProt Q92633); experiment: LPA1 functional antagonist assay (calcium flux); type: cell-based; conditions: CHO cells overexpressing human LPA1; inhibition of calcium flux induced by 10 nM LPA; read-out: hLPA1 IC50
T1 construct: expressed in transfected cells; host or cells: Chinese hamster ovary (CHO) cells
Method: The effectiveness of compounds of the present invention as LPA1 inhibitors can be determined in an LPA1 functional antagonist assay as follows: • Chinese hamster ovary cells overexpressing human LPA1 were plated overnight (15,000 cells/well) in poly-D-lysine coated 384-well microplates (Greiner bio-one, Cat #781946) in DMEM/F12 medium (Gibco, Cat #11039). Following overnight culture, cells were loaded with calcium indicator dye (AAT Bioquest Inc, Cat #34601) for 30 minutes at 37° C. The cells were then equilibrated to room temperature for 30 minutes before the assay. Test compounds solubilized in DMSO were transferred to 384 well non-binding surface plates (Corning, Cat #3575) using the Labcyte Echo acoustic dispense and diluted with assay buffer [[…] with calcium/magnesium (Gibco Cat #14025-092), 20 mM HEPES (Gibco Cat #15630-080) and 0.1% fatty acid free BSA (Sigma Cat #A9205)] to a final concentration of 0.5% DMSO. Diluted compounds were added to the cells by FDSS6000 (Hamamatsu) at final concentrations ranging from 0.08 nM to 5 μM. and were then incubated for 20 min at room temperature at which time LPA (Avanti Polar Lipids Cat #857130C) was added at final concentrations of 10 nM to stimulate the cells. The compound IC50 value was defined as the concentration of test compound which inhibited 50% of the calcium flux induced by LPA alone. IC50 values were determined by fitting data to a 4-parameter logistic equation (GraphPad Prism, San Diego CA). b. In Vivo Assays LPA Challenge with Plasma Histamine Evaluation.

nerve-injured mice = conditions: pretreatment; cited from earlier work
[1] = test system: pancreatic cancer cell lines; conditions: cited from earlier work
[2] = test system: mouse epithelial renal cell line, MCT; conditions: co-treatment with LPA, MCT cells; cited from earlier work
[3] = test system: human foetal lung fibroblasts; conditions: cited from earlier work
UUO mice = UUO mice treated with antagonist, compared with LPA1 (-/-) mice; cited from earlier work

T1 sequence (Q92633 whole entry): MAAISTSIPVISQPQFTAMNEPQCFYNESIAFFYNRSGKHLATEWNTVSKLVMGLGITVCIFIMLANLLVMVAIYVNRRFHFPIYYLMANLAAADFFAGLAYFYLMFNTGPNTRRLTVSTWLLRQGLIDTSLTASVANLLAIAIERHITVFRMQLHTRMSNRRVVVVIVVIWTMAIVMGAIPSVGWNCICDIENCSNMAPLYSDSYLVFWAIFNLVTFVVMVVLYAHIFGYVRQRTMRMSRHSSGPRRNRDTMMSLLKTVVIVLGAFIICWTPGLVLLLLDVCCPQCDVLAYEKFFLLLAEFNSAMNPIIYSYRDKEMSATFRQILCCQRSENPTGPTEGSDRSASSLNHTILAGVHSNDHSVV

## Cc1noc(-c2ccc(-c3ccc(C4(C(=O)O)CC4)cc3)cc2)c1NC(=O)O[C@H](C)c1ccccc1 [BMS-986020]
IPF patients
  rate of FVC (forced vital capacity) decline: significantly reduce

## CN(C(=O)OCc1c(-c2ccc(O[C@@H]3CC[C@H]4C(C(=O)O)[C@@H]34)cn2)nnn1C)C1CCCC1 (stereo partly drawn) [Example 71]
Human LPA1
  IC50: 0.114 µM

## Cc1nc(-c2nnn(C)c2COC(=O)N(C)CC2CCC2)ccc1O[C@@H]1C[C@H](C(=O)O)C[C@@H]2C[C@@H]21 [Example 73]
Human LPA1
  IC50: 0.06 µM

## C[C@@H](N)[C@H]1CC[C@H](C(=O)Nc2ccncc2)CC1 [Example Y-27632]
nerve-injured mice
  allodynia and hyperalgesia: completely abolished

## Cc1noc(-c2ccc(CSCCC(=O)O)cc2)c1NC(=O)OC(C)c1ccccc1Cl (stereo not drawn) [Ki16425]
[1]; highly peritoneal metastatic pancreatic cancer cell line
  LPA-induced and ascites-induced invasion activity: blocked
[1]; pancreatic cancer cell lines
  in vitro migration in response to LPA and ascites from pancreatic cancer patients: effectively blocked
[2]
  LPA-induced expression of CTGF: almost completely suppressed
[3]
  chemotaxis of human foetal lung fibroblasts induced by BAL from IPF patients: blocked
UUO mice
  development of renal fibrosis: closely resembled the profile of LPA1 (−/−) mice
